What is called EC50 is the concentration giving half of the maximal effect.

Results filed as inconclusive are left out. Calls of active or inactive are those of the source. No rule for the calls is given here.

From PubChem BioAssay AID1159536 (DiRusso Lab, Biochemistry Department, University of Nebraska, 2015) come the findings set out here.

The test concerns Chlamydomonas reinhardtii, Nile Red lipid fluorescence, 72 h. As to the kind of experiment: compounds raising TAG storage in Chlamydomonas – qHTS, Chlamydomonas reinhardtii, dose response (AID 1159536).

Consider `Cc1ccc(C)c(N2CCN(C3CCc4ccccc4C3)CC2)c1` (stereo not drawn), for which the EC50 was 16.7 µM. Under `COc1ccccc1C(=O)N1CCN(C(=O)C(c2ccccc2)c2ccccc2)CC1` stands 5.62 µM (inactive). Under `Oc1ccc(Br)cc1CN1CCC(N2CCOCC2)CC1` stands 22.8 µM; under `CCOc1c(Cl)cc(C(=O)Nc2cccc([N+](=O)[O-])c2)cc1Cl`, 13.4 µM (inactive); under `COc1cccc(N2CCN(CC3CC4C=CC3C4)CC2)c1` (stereo not drawn), 1.26 µM. Next, `COc1ccc(OCCCN2CCCC(C)C2)cc1` (stereo not drawn): 12.5 µM. Consider `COc1ccc(CN2CCN(CC3CC4C=CC3C4)CC2)cc1OC` (stereo not drawn), for which the EC50 is 3.91 µM.

With `Clc1ccc(N2CCN(Cc3ccc4c(c3)OCO4)CC2)cc1`, the half-maximal effective concentration (EC50) was 1.32 µM. Next, `Cc1ccc(OCCCn2ccnc2)c(Br)c1`: 1.26 µM. Next, `O=C(Nc1ccc([N+](=O)[O-])cc1)c1ccccc1Cl`: 5.11 µM; `CCN(CC)CC#CCOc1ccccc1`: 11.6 µM; `O=C(CN1CCCCC1)Nc1ncc(Cc2ccc(Br)cc2)s1`: 1.27 µM (inactive). Under `COc1cccc(CN2CCN(Cc3ccc(F)cc3)CC2)c1OC` stands 0.651 µM; under `CCC(C)c1ccc(OCCCN2CCN(C)CC2)cc1` (stereo not drawn), 0.902 µM. Consider `CN(CCC#N)C12CC3CC(CC(C3)C1)C2`, for which the half-maximal effective concentration (EC50) was 8.62 µM. Under `O=[N+]([O-])c1ccc(CN2CCN(Cc3ccccc3)CC2)cc1` stands 6.26 µM; under `COc1ccccc1N1CCN(Cc2ccc(F)cc2)CC1`, 2.84 µM. Under `O=C(c1ccccc1)c1ccc(OCCCCn2ccnc2)cc1` stands 1.33 µM (inactive); under `CN1CCN(C2C3CC4CC(C3)CC2C4)CC1` (stereo not drawn), 9.7 µM; under `Cc1cc(I)ccc1S(=O)(=O)NCCCN1CCOCC1`, 1.28 µM. Next, `Oc1ccc(Br)cc1CN1CCN(CC2CC3C=CC2C3)CC1` (stereo not drawn): 9.95 µM; `Cc1ccccc1OCCCCN1CCOCC1`: 9.79 µM; `C(=C\c1ccccc1)/CN1CCN(CC2CCCCC2)CC1`: 0.644 µM.

Consider `COc1ccc(NC(=O)CCC2CCCCC2)c([N+](=O)[O-])c1`, for which the 50% effective concentration (EC50) was 6.82 µM. Under `O=C(C1COc2ccccc2O1)N1CCN(Cc2ccccc2)CC1` (stereo not drawn) stands 10.6 µM; under `Oc1ccc(CN2CCN(c3ccccc3Cl)CC2)cc1`, 0.632 µM; under `O=[N+]([O-])c1ccccc1CN1CCN(CC2CC3C=CC2C3)CC1` (stereo not drawn), 11.7 µM (inactive). Under `Brc1ccc(CN2CCN(c3ccccc3)CC2)cc1` stands 22 µM. Under `C(=C\c1ccccc1)/CN1CCN(C2C3CC4CC(C3)CC2C4)CC1` (stereo not drawn) stands 3.99 µM; under `Cc1ccc(OCCCCN2CCOCC2)cc1`, 4.2 µM. As to `Cc1ccc2nc(SCc3ccccc3)c(C=O)c(=O)n2c1`, the EC50 was 4.11 µM.

As for `O=C(Nc1ccc(Br)cc1)c1ccccc1Cl`, the EC50 is 9.96 µM. As for `Cc1cc(C)c(S(=O)(=O)N2CCN(C)CC2)cc1Br`, the EC50 was 15.8 µM. Under `Cc1c(C(=O)Nc2ccc(F)c(F)c2)cccc1[N+](=O)[O-]` stands 17.5 µM (inactive); under `CC(C(=O)NCc1ccc(Cl)cc1)N(c1ccccc1)S(C)(=O)=O` (stereo not drawn), 11.3 µM (inactive). For `COc1cccc(NC2=C(N(C)C)C(=O)c3ccccc3C2=O)c1`, the EC50 is 1.87 µM (inactive). Next, `CCN(Cc1ccccc1)C(=O)C1CCN(Cc2ccccc2F)CC1`: 1.32 µM; `OC(COc1ccc(Br)cc1)CN1CCCCCC1` (stereo not drawn): 10.6 µM (inactive); `c1coc(CN2CCN(C3CCCCC3)CC2)c1`: 12.2 µM. Next, `COc1ccccc1N1CCN(C2CCN(CC3CC4C=CC3C4)CC2)CC1` (stereo not drawn): 10.5 µM; `CN1CC=C(CNc2cccc3c2CCCC3)CC1`: 2.58 µM. Turning to `C(#CC12CC3CC(CC(C3)C1)C2)CN1CCOCC1`, the EC50 is 3.27 µM. As for `O=C(O)C1CC=CCC1C(=O)Nc1ccc(F)cc1F` (stereo not drawn), the EC50 was 13.2 µM (inactive). Under `CC(=O)N(C1=C(Nc2ccccc2)C(=O)c2ccccc2C1=O)c1ccccc1` stands 15.2 µM (inactive).

As for `O=C(CN1CCCCC1)NCC12CC3CC(CC(C3)C1)C2`, the EC50 is 9.27 µM. Under `Clc1ccc(OCCOCCN2CCCC2)c(Br)c1` stands 2.6 µM; under `Cc1cc(OCC(O)CN2CCN(CCO)CC2)ccc1C(C)C` (stereo not drawn), 0.81 µM.

With `c1ccc(N2CCN(Cc3ccsc3)CC2)cc1`, the EC50 is 0.652 µM.

For `O=C(CN1CCCCC1)NC12CC3CC(CC(C3)C1)C2`, the EC50 was 3.47 µM.

Turning to `COc1cc(C)c(CN2CCN(Cc3ccc4c(c3)OCO4)CC2)cc1C`, the EC50 was 2.04 µM. Under `CCOc1ccc(CN2CCN(c3ccc([N+](=O)[O-])cc3)CC2)cc1` stands 2.64 µM. Next, `Cc1ccc(CN2CCN(c3ccc(F)cc3)CC2)cc1`: 0.00439 µM; `CC1(C)Oc2ccc(NC(=O)c3ccc(C(=O)c4ccccc4)cc3)cc2O1`: 8.94 µM (inactive). Under `CC1CCCCN1S(=O)(=O)c1ccc(NC(=O)c2ccc(Cl)cc2Cl)cc1` (stereo not drawn) stands 2.56 µM (inactive); under `O=S(=O)(c1ccc(F)cc1)n1cccc1`, 0.684 µM (inactive).

In the case of `C/C=C(\C)CN1CCN(c2ccc(C)cc2)CC1`, the EC50 was 4.18 µM. Under `COc1ccc(CN2CCN(c3ncnc4sc5c(c34)CCCC5)CC2)cc1` stands 4.83 µM; under `O=[N+]([O-])c1ccc(CN2CCN(C3CCCC3)CC2)cc1`, 0.0669 µM. Under `O=C(Nc1ccccc1C(=O)Nc1ccccc1Cl)c1ccncc1` stands 9.55 µM; under `COc1ccc(CNC2CCCC(C)C2)cc1` (stereo not drawn), 7.06 µM; under `O=[N+]([O-])c1ccccc1S(=O)(=O)N1CCN(C2CCN(Cc3ccccc3)CC2)CC1`, 10.7 µM. Under `O=C(Nc1ccc(Cc2ccncc2)cc1)c1cc(Br)ccc1Cl` stands 2.29 µM (inactive). As to `CCN(CC)CC#Cc1ccc(C#CCN(CC)CC)cc1`, the EC50 is 4.15 µM.

Turning to `COc1ccc(OC)c(CN2CCN(Cc3ccc([N+](=O)[O-])cc3)CC2)c1`, the EC50 was 1.35 µM. Under `c1ccc(N2CCN(CC3CCCCC3)CC2)cc1` stands 1.03 µM; under `CN(Cc1ccc([N+](=O)[O-])cc1)C1CCCCC1`, 0.0878 µM. Under `Cc1ccc(CN2CCN(CCO)CC2)cc1` stands 16.1 µM; under `Clc1cccc(N2CCN(Cc3ccsc3)CC2)c1`, 3.96 µM. Next, `COCCNS(=O)(=O)c1cc(Cl)ccc1OC`: 2.98 µM (inactive); `Cc1cc(Cl)cc(C)c1OCCn1ccnc1`: 1.29 µM. Consider `Cc1ccc2nc(NC(=O)C3CC3)sc2c1`, for which the EC50 is 15.1 µM (inactive). Under `O=C(Nc1ccc(Cc2ccncc2)cc1)c1ccc([N+](=O)[O-])cc1Cl` stands 1.21 µM (inactive); under `Nn1c(SCC(=O)NC23CC4CC(CC(C4)C2)C3)nnc1-c1ccc(Cl)cc1Cl`, 7.04 µM; under `C1=CC2CC1CC2CN1CCN(C2CCC(c3ccccc3)CC2)CC1` (stereo not drawn), 1.46 µM. Next, `CCN(Cc1ccccc1)C(=O)C1CCN(CCCc2ccccc2)CC1`: 1.3 µM; `Cc1ccc(OCCCCN2CCCC2)c(Br)c1`: 2.65 µM; `Cc1cc(Br)ccc1OCCCCN1CCN(C)CC1`: 3.38 µM.

On to `C/C(=C\c1ccccc1)CN(C)CCN(C)C`, for which the EC50 is 2.65 µM.
